Assays:
[1] = target: Muscarinic acetylcholine receptor M3 (Homo sapiens, UniProt P20309)
[2] = target: T1, Equilibrative nucleoside transporter 1 (Homo sapiens, UniProt Q99808)
T1 sequence (Q99808 whole entry): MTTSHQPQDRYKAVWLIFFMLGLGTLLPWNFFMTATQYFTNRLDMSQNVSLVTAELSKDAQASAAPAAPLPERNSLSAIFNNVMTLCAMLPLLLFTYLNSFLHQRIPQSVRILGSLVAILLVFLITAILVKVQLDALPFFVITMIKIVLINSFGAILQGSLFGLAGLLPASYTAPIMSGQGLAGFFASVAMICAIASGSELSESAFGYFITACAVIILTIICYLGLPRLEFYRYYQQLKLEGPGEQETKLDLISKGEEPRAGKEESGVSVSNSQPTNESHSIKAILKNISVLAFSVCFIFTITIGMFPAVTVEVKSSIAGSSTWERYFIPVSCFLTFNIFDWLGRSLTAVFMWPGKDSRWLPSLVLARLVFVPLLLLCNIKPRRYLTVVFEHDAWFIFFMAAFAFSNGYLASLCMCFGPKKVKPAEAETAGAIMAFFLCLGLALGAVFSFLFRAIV

[3] = target: 5-hydroxytryptamine receptor 2A (Homo sapiens, UniProt P28223); type: functional, cell-based
[4] = target: T2, Gastrin/cholecystokinin type B receptor (Homo sapiens, UniProt P32239)
T2 sequence (P32239 whole entry): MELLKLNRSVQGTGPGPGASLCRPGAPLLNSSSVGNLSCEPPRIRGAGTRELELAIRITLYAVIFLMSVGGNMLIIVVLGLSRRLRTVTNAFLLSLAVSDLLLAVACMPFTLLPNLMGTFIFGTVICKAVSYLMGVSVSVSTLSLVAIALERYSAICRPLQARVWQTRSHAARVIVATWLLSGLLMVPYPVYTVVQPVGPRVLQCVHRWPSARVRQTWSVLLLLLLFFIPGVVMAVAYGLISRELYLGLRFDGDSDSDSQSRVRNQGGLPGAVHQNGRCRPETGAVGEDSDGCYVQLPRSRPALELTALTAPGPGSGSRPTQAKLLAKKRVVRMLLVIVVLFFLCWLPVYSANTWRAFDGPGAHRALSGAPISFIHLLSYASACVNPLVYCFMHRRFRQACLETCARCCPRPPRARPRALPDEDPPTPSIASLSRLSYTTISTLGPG

[5] = target: T3, Muscarinic acetylcholine receptor M1 (Homo sapiens, UniProt P11229); type: functional
T3 sequence (P11229 whole entry): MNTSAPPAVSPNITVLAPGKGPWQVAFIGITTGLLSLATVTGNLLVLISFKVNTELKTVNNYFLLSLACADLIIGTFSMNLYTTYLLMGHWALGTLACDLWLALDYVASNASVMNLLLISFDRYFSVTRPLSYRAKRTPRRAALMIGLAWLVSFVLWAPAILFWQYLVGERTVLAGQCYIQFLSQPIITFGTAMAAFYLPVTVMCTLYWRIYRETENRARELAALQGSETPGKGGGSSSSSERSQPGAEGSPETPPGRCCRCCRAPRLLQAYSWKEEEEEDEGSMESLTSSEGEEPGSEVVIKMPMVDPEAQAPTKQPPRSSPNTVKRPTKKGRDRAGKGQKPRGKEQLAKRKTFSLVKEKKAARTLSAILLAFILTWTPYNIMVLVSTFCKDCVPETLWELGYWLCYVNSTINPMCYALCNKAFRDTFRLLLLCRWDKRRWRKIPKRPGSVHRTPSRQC

[6] = target: T4, Muscarinic acetylcholine receptor M2 (Homo sapiens, UniProt P08172); type: functional, cell-based
T4 sequence (P08172 whole entry): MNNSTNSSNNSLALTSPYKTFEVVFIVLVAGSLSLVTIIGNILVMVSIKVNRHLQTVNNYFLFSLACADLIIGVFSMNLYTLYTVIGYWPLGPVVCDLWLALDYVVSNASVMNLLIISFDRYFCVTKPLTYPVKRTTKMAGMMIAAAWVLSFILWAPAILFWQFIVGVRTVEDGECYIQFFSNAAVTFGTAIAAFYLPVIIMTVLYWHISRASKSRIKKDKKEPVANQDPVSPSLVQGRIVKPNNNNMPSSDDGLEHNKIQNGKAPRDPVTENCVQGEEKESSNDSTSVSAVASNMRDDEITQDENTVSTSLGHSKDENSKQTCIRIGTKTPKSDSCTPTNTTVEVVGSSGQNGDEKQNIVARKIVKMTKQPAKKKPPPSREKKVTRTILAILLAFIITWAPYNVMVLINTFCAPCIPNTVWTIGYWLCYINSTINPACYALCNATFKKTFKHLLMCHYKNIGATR

Endothelin-1 receptor = target: T5, Endothelin-1 receptor (Homo sapiens, UniProt P25101)
T5 sequence (P25101 whole entry): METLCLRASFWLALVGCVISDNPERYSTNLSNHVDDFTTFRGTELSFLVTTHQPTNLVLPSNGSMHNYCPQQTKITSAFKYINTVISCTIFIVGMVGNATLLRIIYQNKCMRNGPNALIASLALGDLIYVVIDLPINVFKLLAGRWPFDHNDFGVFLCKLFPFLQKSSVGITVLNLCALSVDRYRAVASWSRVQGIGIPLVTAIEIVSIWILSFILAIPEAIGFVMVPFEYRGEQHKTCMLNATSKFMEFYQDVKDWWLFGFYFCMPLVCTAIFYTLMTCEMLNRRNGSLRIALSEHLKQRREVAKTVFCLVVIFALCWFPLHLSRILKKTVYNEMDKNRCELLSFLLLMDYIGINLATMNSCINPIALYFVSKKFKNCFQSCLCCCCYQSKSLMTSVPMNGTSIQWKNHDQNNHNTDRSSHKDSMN

Histamine H3 receptor = Histamine H3 receptor (Homo sapiens, UniProt Q9Y5N1)
[7] = target: Beta-2 adrenergic receptor (Homo sapiens, UniProt P07550); type: functional, cell-based
[8] = target: Gamma-aminobutyric acid receptor subunit alpha-1/alpha-2/beta-2/gamma-2 (Homo sapiens, UniProt P14867+P18507+P47869+P47870); type: protein-complex assay
Note: assay procedure not described here.

Chain of Histamine H3 receptor (Q9Y5N1 whole entry): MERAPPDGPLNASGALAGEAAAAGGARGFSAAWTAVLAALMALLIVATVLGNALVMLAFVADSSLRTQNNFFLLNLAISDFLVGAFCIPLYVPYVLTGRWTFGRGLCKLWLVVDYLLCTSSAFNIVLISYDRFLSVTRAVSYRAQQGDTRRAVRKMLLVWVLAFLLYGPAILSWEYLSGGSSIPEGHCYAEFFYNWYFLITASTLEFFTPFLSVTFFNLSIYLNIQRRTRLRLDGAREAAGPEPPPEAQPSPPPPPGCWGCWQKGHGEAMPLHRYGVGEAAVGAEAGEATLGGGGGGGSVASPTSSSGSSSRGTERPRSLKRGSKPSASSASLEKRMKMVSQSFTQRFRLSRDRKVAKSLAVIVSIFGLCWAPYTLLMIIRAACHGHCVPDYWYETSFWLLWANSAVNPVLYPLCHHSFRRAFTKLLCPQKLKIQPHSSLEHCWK
Chain of Muscarinic acetylcholine receptor M3 (P20309 whole entry): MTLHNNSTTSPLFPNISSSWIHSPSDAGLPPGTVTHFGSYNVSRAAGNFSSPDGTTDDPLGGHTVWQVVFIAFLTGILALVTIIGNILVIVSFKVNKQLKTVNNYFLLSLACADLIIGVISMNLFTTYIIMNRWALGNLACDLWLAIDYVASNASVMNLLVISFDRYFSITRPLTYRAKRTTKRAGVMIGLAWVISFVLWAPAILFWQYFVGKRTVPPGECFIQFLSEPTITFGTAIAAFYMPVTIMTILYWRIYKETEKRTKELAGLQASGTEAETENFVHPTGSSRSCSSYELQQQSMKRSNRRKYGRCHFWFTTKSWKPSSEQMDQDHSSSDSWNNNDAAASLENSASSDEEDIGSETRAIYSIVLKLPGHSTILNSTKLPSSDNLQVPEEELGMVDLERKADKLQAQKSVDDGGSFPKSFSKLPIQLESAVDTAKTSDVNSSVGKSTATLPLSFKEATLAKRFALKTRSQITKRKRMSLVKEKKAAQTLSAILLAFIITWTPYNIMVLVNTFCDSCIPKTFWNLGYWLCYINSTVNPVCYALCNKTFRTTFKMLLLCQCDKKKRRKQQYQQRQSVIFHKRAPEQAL
Chain of Gamma-aminobutyric acid receptor subunit alpha-1/alpha-2/beta-2/gamma-2 (P14867 whole entry): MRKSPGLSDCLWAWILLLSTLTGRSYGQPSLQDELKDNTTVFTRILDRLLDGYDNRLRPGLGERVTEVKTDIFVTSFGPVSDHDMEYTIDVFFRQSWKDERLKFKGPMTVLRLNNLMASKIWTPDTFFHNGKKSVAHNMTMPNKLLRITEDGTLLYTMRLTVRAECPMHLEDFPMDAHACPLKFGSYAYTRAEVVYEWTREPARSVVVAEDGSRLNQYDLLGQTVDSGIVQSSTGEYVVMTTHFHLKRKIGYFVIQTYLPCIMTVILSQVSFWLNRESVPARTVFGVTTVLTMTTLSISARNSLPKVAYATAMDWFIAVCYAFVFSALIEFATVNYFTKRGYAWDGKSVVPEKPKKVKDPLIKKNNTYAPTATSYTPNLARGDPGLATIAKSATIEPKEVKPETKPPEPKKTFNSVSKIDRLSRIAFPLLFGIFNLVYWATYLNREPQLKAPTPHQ
Chain of Gamma-aminobutyric acid receptor subunit alpha-1/alpha-2/beta-2/gamma-2 (P47870 whole entry): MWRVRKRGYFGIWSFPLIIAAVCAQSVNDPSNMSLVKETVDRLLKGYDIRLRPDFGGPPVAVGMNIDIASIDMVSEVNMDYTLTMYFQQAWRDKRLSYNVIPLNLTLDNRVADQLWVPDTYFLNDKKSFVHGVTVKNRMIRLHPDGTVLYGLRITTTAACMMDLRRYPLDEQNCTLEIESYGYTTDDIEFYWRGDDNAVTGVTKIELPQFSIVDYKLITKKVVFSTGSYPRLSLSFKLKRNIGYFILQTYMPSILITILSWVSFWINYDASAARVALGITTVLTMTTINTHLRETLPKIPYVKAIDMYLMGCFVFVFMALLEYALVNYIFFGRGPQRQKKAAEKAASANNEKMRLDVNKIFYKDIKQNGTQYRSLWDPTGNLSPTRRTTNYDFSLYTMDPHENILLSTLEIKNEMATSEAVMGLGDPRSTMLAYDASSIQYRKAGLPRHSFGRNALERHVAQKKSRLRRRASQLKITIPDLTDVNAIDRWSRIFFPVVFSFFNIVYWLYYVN
Chain of Gamma-aminobutyric acid receptor subunit alpha-1/alpha-2/beta-2/gamma-2 (P18507 whole entry): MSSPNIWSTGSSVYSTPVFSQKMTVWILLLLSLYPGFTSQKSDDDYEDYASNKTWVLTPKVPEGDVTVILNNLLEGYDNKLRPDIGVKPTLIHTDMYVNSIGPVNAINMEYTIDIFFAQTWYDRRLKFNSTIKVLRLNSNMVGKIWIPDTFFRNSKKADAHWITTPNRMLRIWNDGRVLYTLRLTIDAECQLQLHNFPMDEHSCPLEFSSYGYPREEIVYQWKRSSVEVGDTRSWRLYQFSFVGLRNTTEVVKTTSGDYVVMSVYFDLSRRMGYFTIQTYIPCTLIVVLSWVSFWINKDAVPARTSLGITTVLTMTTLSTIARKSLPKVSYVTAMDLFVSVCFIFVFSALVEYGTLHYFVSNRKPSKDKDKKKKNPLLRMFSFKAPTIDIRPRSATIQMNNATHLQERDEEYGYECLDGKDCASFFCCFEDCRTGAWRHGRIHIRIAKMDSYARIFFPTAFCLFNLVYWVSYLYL
Chain of Gamma-aminobutyric acid receptor subunit alpha-1/alpha-2/beta-2/gamma-2 (P47869 whole entry): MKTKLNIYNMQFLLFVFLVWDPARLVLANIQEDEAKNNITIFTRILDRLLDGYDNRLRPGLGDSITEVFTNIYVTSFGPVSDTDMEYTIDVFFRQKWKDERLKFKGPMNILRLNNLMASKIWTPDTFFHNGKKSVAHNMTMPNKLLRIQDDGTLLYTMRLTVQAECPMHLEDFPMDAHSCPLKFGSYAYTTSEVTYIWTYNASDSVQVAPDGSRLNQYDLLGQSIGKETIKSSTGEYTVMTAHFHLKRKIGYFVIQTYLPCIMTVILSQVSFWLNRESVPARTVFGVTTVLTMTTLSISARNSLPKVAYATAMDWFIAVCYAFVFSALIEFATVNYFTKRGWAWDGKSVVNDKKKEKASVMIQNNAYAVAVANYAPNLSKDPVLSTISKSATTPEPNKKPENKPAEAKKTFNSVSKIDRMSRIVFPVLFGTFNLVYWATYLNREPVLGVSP
Chain of 5-hydroxytryptamine receptor 2A (P28223 whole entry): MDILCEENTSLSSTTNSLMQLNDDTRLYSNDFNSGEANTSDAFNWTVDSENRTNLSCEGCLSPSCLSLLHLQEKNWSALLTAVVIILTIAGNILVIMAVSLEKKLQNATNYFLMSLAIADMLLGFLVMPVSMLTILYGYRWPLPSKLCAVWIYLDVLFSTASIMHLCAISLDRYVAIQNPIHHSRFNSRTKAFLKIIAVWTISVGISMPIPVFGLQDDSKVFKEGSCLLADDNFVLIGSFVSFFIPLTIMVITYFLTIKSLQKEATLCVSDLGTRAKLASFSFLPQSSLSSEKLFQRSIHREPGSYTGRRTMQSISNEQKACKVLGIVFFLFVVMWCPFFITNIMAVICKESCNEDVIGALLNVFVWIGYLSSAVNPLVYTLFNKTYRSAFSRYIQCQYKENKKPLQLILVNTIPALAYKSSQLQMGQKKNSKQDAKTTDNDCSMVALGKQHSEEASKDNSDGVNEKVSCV
Chain of Beta-2 adrenergic receptor (P07550 whole entry): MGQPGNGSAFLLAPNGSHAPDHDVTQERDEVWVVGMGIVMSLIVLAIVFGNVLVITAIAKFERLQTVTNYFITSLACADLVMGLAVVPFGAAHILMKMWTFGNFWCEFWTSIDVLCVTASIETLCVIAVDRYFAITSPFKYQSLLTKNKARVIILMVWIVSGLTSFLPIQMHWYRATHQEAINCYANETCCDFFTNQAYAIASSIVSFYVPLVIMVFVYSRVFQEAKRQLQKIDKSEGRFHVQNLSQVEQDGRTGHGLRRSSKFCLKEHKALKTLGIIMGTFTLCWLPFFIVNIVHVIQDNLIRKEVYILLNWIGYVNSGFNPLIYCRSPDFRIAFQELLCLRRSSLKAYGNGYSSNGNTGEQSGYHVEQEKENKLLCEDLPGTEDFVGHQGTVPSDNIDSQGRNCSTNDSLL

| Compound | AC50 [1] | AC50 [2] | AC50 [3] | AC50 [4] | AC50 [5] | AC50 [6] | AC50 (Endothelin-1 receptor) | AC50 (Histamine H3 receptor) | AC50 [7] | AC50 [8] |
| --- | --- | --- | --- | --- | --- | --- | --- | --- | --- | --- |
| C[N+]1(C)CCC(=C(c2ccccc2)c2ccccc2)CC1 | 0.19 µM | > 10 µM | > 10 µM | > 30 µM | 0.41 µM | – | – | – | – | – |
| CN(C)C/C=C/C(=O)Nc1cc2c(Nc3ccc(F)c(Cl)c3)ncnc2cc1O[C@H]1CCOC1 [AFATINIB] | > 30 µM | > 30 µM | > 30 µM | > 30 µM | > 30 µM | 23 µM | > 30 µM | > 30 µM | > 30 µM | – |
| Cc1ccccc1-n1c(CF)nc2ccc(N)cc2c1=O [AFLOQUALONE] | > 30 µM | > 30 µM | > 10 µM | > 30 µM | > 10 µM | > 10 µM | – | > 30 µM | – | – |
| NC(=O)[C@@H]1CC[C@@H]2CN1C(=O)N2OS(=O)(=O)O [AVIBACTAM] | – | – | – | – | – | – | – | – | – | > 30 µM |
| CC1=C(C(=O)OC(C)C)C(c2cccc([N+](=O)[O-])c2)C(C(=O)OC2CN(C(c3ccccc3)c3ccccc3)C2)=C(N)N1 (stereo not given) [AZELNIDIPINE] | > 30 µM | > 30 µM | > 30 µM | > 30 µM | > 30 µM | > 30 µM | > 30 µM | > 30 µM | – | – |
| CC(Cc1cccc(C(F)(F)F)c1)NCCOC(=O)c1ccccc1 (stereo not given) [BENFLUOREX] | 27 µM | – | > 30 µM | > 30 µM | > 30 µM | > 30 µM | > 30 µM | > 30 µM | > 30 µM | – |
| C=C1CC[C@H](O)C/C1=C/C=C1\CCC[C@]2(C)[C@@H]([C@H](C)CCCC(C)C)CC[C@@H]12 [CHOLECALCIFEROL] | – | – | – | – | – | – | – | – | – | > 30 µM |
| C[C@H](CCC(=O)O)[C@H]1CC[C@H]2[C@@H]3[C@H](O)C[C@@H]4C[C@H](O)CC[C@]4(C)[C@H]3C[C@H](O)[C@]12C [CHOLIC ACID] | – | – | – | – | – | – | – | – | – | > 30 µM |
| Cc1ncc2c(c1O)COC2c1ccc(Cl)cc1 (stereo not given) [CICLETANINE] | – | – | – | – | – | – | – | – | – | > 30 µM |
| N#Cc1ccc(Oc2ccc3c(c2)COB3O)cc1 [CRISABOROLE] | – | – | – | – | – | – | – | – | – | > 30 µM |
| CC(=O)O[C@H]1Cc2ccccc2N(C(N)=O)c2ccccc21 [ESLICARBAZEPINE ACETATE] | – | – | – | – | – | – | – | – | – | > 30 µM |
| CNCCc1ccc(OC(=O)C(C)C)c(OC(=O)C(C)C)c1 [IBOPAMINE] | > 30 µM | > 30 µM | > 30 µM | > 30 µM | > 30 µM | > 30 µM | > 30 µM | > 30 µM | 9.93 µM | – |
| COC(=O)C1=C(C)NC(C)=C(C(=O)OCCN2CCN(C(c3ccccc3)c3ccccc3)CC2)C1c1cccc([N+](=O)[O-])c1 (stereo not given) [MANIDIPINE 6300] | > 30 µM | > 30 µM | > 30 µM | > 30 µM | > 30 µM | > 30 µM | > 30 µM | > 30 µM | > 30 µM | – |
| C=C1c2cccc(O)c2C(=O)C2=C(O)[C@]3(O)C(=O)C(C(N)=O)=C(O)[C@@H](N(C)C)[C@@H]3[C@@H](O)[C@H]12 [METHACYCLINE] | > 30 µM | > 10 µM | > 10 µM | > 30 µM | > 10 µM | > 10 µM | – | – | – | – |
| COc1ccc(OC)c(C(O)C(C)N)c1 (stereo not given) [METHOXAMINE] | – | – | – | – | – | – | – | – | – | > 30 µM |
| CC1(CCN2CCCCC2)C(=O)CCc2ccccc21 (stereo not given) [NEPINALONE] | – | – | – | – | – | – | – | – | – | > 30 µM |

| Compound | AC50 [1] | AC50 [2] | AC50 [3] | AC50 [4] | AC50 [5] | AC50 [6] | AC50 (Endothelin-1 receptor) | AC50 (Histamine H3 receptor) | AC50 [7] | AC50 [8] |
| --- | --- | --- | --- | --- | --- | --- | --- | --- | --- | --- |
| COc1cccc(C(=O)CCN[C@@H](C)[C@H](O)c2ccccc2)c1 [OXYFEDRINE] | – | – | – | – | – | – | – | – | – | > 30 µM |
| CC[N+](C)(CC)CCOC(=O)C(O)(c1ccccc1)C1CCCCC1 (stereo not given) [OXYPHENONIUM] | – | – | – | – | – | – | – | – | – | > 30 µM |
| O=C1c2cccc3c2[C@H](CCC3)CN1[C@@H]1CN2CCC1CC2 [PALONOSETRON] | 28 µM | > 30 µM | > 30 µM | > 30 µM | > 30 µM | > 30 µM | – | > 30 µM | – | – |
| C[C@@H]1C[C@H]2[C@@H]3C[C@H](F)C4=CC(=O)C=C[C@]4(C)[C@H]3[C@@H](O)C[C@]2(C)[C@@]1(O)C(=O)CO [PARAMETHASONE] | – | – | – | – | – | – | – | – | – | > 30 µM |
| OC[C@H]1O[C@@H](n2cnc3c2NC=NC[C@H]3O)C[C@@H]1O [PENTOSTATIN] | > 30 µM | > 30 µM | > 30 µM | > 30 µM | > 30 µM | > 30 µM | > 30 µM | > 30 µM | > 30 µM | – |
| NNCCc1ccccc1 [PHENELZINE] | – | – | – | – | – | – | – | – | – | > 30 µM |
| Cc1cccc(C)c1NC(=O)CC12CCCN1CCC2 [PILSICAINIDE] | > 30 µM | > 30 µM | > 30 µM | > 30 µM | > 30 µM | > 30 µM | > 30 µM | > 30 µM | – | – |
| CCCn1cnc2c1c(=O)n(CCCCC(C)=O)c(=O)n2C [PROPENTOFYLLINE] | – | – | – | – | – | – | – | – | – | > 30 µM |
| Clc1ccc(C(Cn2ccnc2)OCc2csc3c(Cl)cccc23)c(Cl)c1 (stereo not given) [SERTACONAZOLE] | – | – | – | – | – | – | – | – | – | > 10 µM |
| CC(OCCN1CCCCCC1)(c1ccccc1)c1ccc(Cl)cc1 (stereo not given) [SETASTINE] | – | – | – | – | – | – | – | – | – | > 30 µM |
| O=C1OC(OC(=O)c2cccnc2Nc2cccc(C(F)(F)F)c2)c2ccccc21 (stereo not given) [TALNIFLUMATE] | > 30 µM | > 30 µM | > 30 µM | > 30 µM | > 30 µM | > 30 µM | > 30 µM | > 30 µM | > 30 µM | – |
| C[C@]12C=CC(=O)C=C1CC[C@@H]1[C@@H]2CC[C@]2(C)OC(=O)CC[C@@H]12 [TESTOLACTONE] | > 30 µM | > 10 µM | > 30 µM | – | > 10 µM | > 10 µM | – | – | > 30 µM | – |
| c1ccc2c(SC3=NCCN3)c[nH]c2c1 [TINAZOLINE] | – | – | – | – | – | – | – | – | – | > 30 µM |
| Cc1ccc(C(=O)C(C)CN2CCCCC2)cc1 (stereo not given) [TOLPERISONE] | – | – | – | – | – | – | – | – | – | > 30 µM |
| CCOC(=O)c1c(CSc2ccccc2)n(C)c2cc(Br)c(O)c(CN(C)C)c12 [UMIFENOVIR] | > 30 µM | > 30 µM | > 30 µM | > 30 µM | 18 µM | 28 µM | > 30 µM | > 30 µM | – | – |
